# Counter-ions that a name gives are not always drawn.
# Tests used:
# HIV-1 = test: Anti-HIV-1 activity in MT-4 cells; format: cell-based; conditions: for HIV1/HIV2 Act. (HIV1): Table 1, MT-4 cells, viable cells after five days; for inhibited the growth of HIV-1: at high concentrations
# Protocol: Anti-HIV-1 activity was tested in MT-4 cells as described previously (Pauwels et al. J. Virol Methods 1987, 11, 171). The cells were either infected with HIV-1 or mock infected and incubated in the presence of the test compounds. The number of viable cells was then determined after five days (Pauwels et al. J. Virol Methods 1988, 20, 309).
# glycosidase = test: Glycosidase inhibition, overall statement; format: biochemical
# Protocol: Compounds 6, 11 and 12 in Table 1 were screened at a single dose (100 micromolar) against sucrase and maltase, two glycosidase enzymes. In addition compounds 1 and 2 were screened at a dose of 1 mM. These compounds are described in Examples 6, 81 10, 11 and 12. […] Compounds 1, 2, 6 and 12 are novel compounds having glucitol stereochemistry. Compound 11 is likewise novel and it has the iditol stereochemistry.
# (§1) The inhibition of maltase (sucrase) tests was carried out as recited hereinafter. Partially purified α-glycosidase was isolated from the rabbit's small intestine as described in the literature (B. L. Rhinehart et al. Life Sci. 1987, 41, 2325). The α-glycosidase activity was measured using […] as substrates. β-Glycosidase from almonds was obtained from Sigma (St. Louis), and β-glycosidase activity was measured using lactose as a substrate. The incubation mixture (200 μL) consisted of substrate (100 mM), enzyme, 100 mM NaCl, 0.1 mM Na2 EDTA and either 10 mM MOPS (for pH 7), 10 mM maleic acid (for pH 6), or 10 Mm acetate (for pH 5) as buffer (adjusted to their respective pH with NaOH). Compounds dissolved in dimethylsulfoxide were added (final concentration of dimethylsulfoxide in the assay was 1%). The assay was performed at 37 deg C. for 30 minutes and arrested by incubation for 3 min at 85 deg C. After centrifugation for 2 min at 10,000 g, the supernatant was collected and processed for glucose determination. Glucose was measured with the hexokinase method (kit obtained from Boehringer Mannheim) on an EPOS 5060 EPPENDORF autoanalyser.
# Maltase = test: Inhibition of maltase (α-glycosidase, maltose-cleaving activity); format: biochemical, rabbit; conditions: for Inh. of Maltase: at 100 µM (Table 1 head)
# Protocol: […] In addition compounds 1 and 2 were screened at a dose of 1 mM. These compounds are described in Examples 6, 81 10, 11 and 12. […] Compounds 1, 2, 6 and 12 are novel compounds having glucitol stereochemistry. Compound 11 is likewise novel and it has the iditol stereochemistry.
# as §1
# β-Glycosidase = test: Inhibition of lactose activity (β-glycosidase); format: biochemical, almonds
# Protocol: as §1
# Sucrase = target: T1, Sucrase (Oryctolagus cuniculus, UniProt P07768); test: Inhibition of sucrase (α-glycosidase); format: biochemical, rabbit; conditions: at 100 mM (Table 1 head)
# T1 construct: Partially purified α-glycosidase was isolated from the rabbit's small intestine; from tissue; host or cells: rabbit small intestine, partially purified
# Protocol: […] In addition compounds 1 and 2 were screened at a dose of 1 mM. These compounds are described in Examples 6, 81 10, 11 and 12.
# as §1
# HIV2 = test: Anti-HIV-2 activity; format: cell-based; conditions: Table 1
# T1 sequence (P07768 1008-1827 limits assumed): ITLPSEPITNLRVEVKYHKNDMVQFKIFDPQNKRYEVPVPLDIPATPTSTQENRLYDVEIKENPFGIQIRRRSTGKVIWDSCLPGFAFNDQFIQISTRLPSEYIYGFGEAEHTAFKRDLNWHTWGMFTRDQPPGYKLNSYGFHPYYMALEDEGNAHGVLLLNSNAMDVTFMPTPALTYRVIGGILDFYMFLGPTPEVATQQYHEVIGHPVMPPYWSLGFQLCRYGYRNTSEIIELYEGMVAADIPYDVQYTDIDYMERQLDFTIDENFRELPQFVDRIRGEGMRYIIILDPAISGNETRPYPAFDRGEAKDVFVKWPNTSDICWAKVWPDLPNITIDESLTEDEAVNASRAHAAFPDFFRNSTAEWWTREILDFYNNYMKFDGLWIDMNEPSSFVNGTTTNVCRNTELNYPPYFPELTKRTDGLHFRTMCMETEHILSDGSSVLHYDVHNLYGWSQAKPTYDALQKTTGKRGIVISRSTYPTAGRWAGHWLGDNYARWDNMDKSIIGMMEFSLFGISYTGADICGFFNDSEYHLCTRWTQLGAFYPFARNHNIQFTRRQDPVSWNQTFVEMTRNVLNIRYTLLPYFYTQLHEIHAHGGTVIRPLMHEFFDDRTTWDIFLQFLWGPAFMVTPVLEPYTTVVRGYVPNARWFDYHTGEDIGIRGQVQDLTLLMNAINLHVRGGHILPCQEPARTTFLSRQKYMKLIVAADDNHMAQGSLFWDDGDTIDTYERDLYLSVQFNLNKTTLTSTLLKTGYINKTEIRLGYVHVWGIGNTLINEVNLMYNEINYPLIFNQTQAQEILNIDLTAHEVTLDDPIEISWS
# T1 sequence (P07768 2-1007 partner limits assumed): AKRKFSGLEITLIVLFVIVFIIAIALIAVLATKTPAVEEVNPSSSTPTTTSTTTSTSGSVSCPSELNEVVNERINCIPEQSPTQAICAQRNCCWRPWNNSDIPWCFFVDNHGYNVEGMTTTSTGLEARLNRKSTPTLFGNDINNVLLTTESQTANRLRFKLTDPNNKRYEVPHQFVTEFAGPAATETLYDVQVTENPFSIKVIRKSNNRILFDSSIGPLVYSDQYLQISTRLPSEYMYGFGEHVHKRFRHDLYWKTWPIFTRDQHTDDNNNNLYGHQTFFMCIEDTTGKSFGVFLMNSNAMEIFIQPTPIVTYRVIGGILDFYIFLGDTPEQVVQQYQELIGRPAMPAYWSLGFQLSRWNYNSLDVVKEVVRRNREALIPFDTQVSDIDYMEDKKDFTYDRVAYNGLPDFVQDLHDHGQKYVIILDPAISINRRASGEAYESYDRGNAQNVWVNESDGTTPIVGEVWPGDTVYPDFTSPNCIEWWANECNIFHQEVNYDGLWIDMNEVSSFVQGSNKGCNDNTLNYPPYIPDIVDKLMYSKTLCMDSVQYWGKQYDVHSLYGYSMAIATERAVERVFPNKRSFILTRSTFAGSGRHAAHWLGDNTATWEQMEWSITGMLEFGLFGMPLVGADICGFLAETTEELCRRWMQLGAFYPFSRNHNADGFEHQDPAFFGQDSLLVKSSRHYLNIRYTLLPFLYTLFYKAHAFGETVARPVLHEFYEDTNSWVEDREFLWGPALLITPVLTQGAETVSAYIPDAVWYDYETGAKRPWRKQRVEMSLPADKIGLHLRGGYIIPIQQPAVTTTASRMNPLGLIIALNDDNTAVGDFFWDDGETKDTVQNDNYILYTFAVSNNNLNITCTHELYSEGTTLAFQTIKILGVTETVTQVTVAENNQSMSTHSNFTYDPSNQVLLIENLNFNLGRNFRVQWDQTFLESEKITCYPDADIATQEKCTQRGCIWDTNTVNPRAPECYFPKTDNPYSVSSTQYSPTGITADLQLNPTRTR
Molecule,HIV1/HIV2 Act. (HIV1) (HIV-1),glycosidase inhibition (in words) (glycosidase),Inh. of Maltase (Maltase) [%],further results
OC[C@H]1[C@@H](O)[C@H](O)[C@H](CO)N1c1ccc(F)cc1 [Compound 11],No anti-HIV1 act.,glycosidase inhibitors,19,
OC[C@@H]1[C@@H](O)[C@H](O)[C@@H](CO)N1c1ccc(F)cc1 [Compound 10],No anti-HIV1 act.,,0,
OCC1[C@@H](O)[C@H](O)C(CO)N1CCCOc1ccc(F)cc1 (some centres unmarked) [Compound 8],No anti-HIV1 act.,,0,
CCCCN1[C@H](CO)[C@@H](O)[C@H](O)[C@@H]1CO [Compound 16],,,0,
CCOC(=O)N1CCC(N2C(CO)[C@@H](O)[C@H](O)C2CO)CC1 (some centres unmarked) [Compound 13],No anti-HIV1 act.,,0,
"OC[C@@H]1[C@@H](O)[C@H](O)[C@@H](CO)N1C(c1ccccc1)c1ccccc1 [Compound 3, N-Benzhydryl-2,5-anhydro-2,5-imino-D-mannitol]",No anti-HIV1 act.,,0,
OCC1[C@@H](O)[C@H](O)C(CO)N1CCc1ccc(F)cc1 (some centres unmarked) [Compound 17],No anti-HIV1 act.,,,
"OC[C@@H]1N[C@H](CO)[C@@H](O)[C@@H]1O [Compound 2, 2,5-Anhydro-2,5-imino-D-glucitol]",No anti-HIV1 act.,glycosidase inhibitors,0,"inhibition of lactose activity (β-Glycosidase; at 10^-3 M, pH 5 (footnote 2)): 44%"
COC1CN(CCCOc2ccc(F)cc2)CCC1N1C(CO)[C@@H](O)[C@H](O)[C@H]1CO (some centres unmarked) [Compound 22],No anti-HIV1 act.,,0,
"OC[C@@H]1[C@@H](O)[C@H](O)[C@H](CO)N1c1ccc(F)cc1 [Compound 9, N-(4-Fluorophenyl)-2,5-anhydro-2,5-imino-D-glucitol]",No anti-HIV1 act.,,0,
OC[C@@H]1[C@@H](O)[C@H](O)[C@H](CO)N1C(c1ccccc1)c1ccccc1 [Compound 1],Weak anti-HIV1 act.,glycosidase inhibitors,0,"inhibited the growth of HIV-1 (HIV-1): inhibited the growth of HIV-1 at high concentrations; inhibition of lactose activity (β-Glycosidase; at 10^-4 M, pH 5 (footnote 1)): 58%; inhibition of maltase (Maltase; at 10^-3 M (footnote 1)): 40%"
"OC[C@@H]1[C@@H](O)[C@H](O)[C@H](CO)N1CCCC(c1ccc(F)cc1)c1ccc(F)cc1 [Compound 12, N-[4,4-bis(4-Fluorophenyl)butyl]-2,5-anhydro-2,5-imino-D-glucitol tosylate]",Weak anti-HIV1 act.,glycosidase inhibitors,20,inhibited the growth of HIV-1 (HIV-1): inhibited the growth of HIV-1 at high concentrations
"N-Stearyl-2,5-anhydro-2,5-imino-D-glucitol [Compound 6]",Weak anti-HIV1 and HIV2,glycosidase inhibitors,1,Inh. of (Sucrase) (Sucrase): 6%; inhibited the growth of HIV-1 (HIV-1): inhibited the growth of HIV-1 at high concentrations; HIV1/HIV2 Act. (HIV2) (HIV2): Weak anti-HIV1 and HIV2
OCCCN1C(CO)[C@@H](O)[C@H](O)C1CO (some centres unmarked) [Compound 15],,,0,

# From US5290948A, “Process for producing polyhydroxylated piperidines and pyrrolidines and compounds thereof” (McNeilab, Inc., priority 1990, dated 1994)
